Legend:
[1] = Rat L6 cell proliferation inhibition test; format: cell-based; conditions: L6 cells (rat skeletal myoblasts), Table 1, Alamar Blue, read-out: EC50 cytotoxicity L6
Procedure: Rat-derived L6 cells (rat skeletal myoblast cell) were used for this test. […] The sample was cultured under CO2 concentration 5% and temperature 37° C. Either the composition of the invention or control was dissolved into DMSO, to prepare test solutions having predefined concentration.
The samples were precultured until logarithmic growth phase was reached. Then the culture was transferred to each well in a 96-well culture plate, and either test solution containing test compound at predefined concentration or DSMO without compound was added. The test solution was duplicated.
The plate was cultured in an incubator for 72 hours, to examine proliferation inhibition activity. The activity was examined as follows. Alamar Blue water solution 10 μL was added to each well, and culture was continued for 2 hours. Next, the culture plate was mounted on a fluorescence microplate reader (Spectramax Gemeni XS; Molecular Devices Corporation, U.S.), and irradiated with excitation wavelength 536 nm to determine fluorescence at 588 nm. The survival rate of L6 cells in the test solution sample and control sample was calculated.
Proliferation inhibition rate(%)={(C−A)/(B−A)}×100
A: Initial cell count B: Cell count in control after 3 days C: Cell count in test solution after 3 days

[2] = tested on: Plasmodium berghei NK 65 strain; assay: animal or person; format: in vivo
From the text: For a test to evaluate therapeutic effect of the compound, 4-day suppressive test which is commonly used for in vivo test to evaluate activity of anti-malaria compound was used. In this experiment, rodent malaria protozoa (Plasmodium berghei NK 65 strain) were used. The infected blood was collected from 5-weeks age (SPF) ICR strain male mouse which were infected intraperitoneally and successively cultured. From the caudal vein of the infected mouse, blood was collected to calculate infection rate. After confirming that infection rate was adequately elevated (10% to 20% infection), the malaria infected blood was collected from the heart of the mouse. The infection rate and count of the red blood cells (cells/mL) were calculated. The infected red blood cell was diluted with PBS buffer to achieve […] protozoa per 0.2 mL dose. The infected cells were injected to the caudal vein of uninfected mouse (ICR strain, male, 5-weeks age) to cause infection. Five mice were made into one group, and the test compound was administered in predefined concentration. From 2 hours after infection, the compound was administered every 24 hours for straight 4 days.
The compound of the invention to be used in this test was dissolved in saline (Otsuka Pharmaceutical Co., Ltd.) to obtain test solution of predefined concentration. When the compound was not dissolved in saline, it was dissolved in SSV (saline containing 0.5% sodium=carboxymethyl cellulose, 0.5% benzyl alcohol, 0.4% Tween 80) to prepare test solution. For the control group (non-treatment group), only saline (Otsuka) was administered. Positive controls S-1 to S-5 were dissolved in saline (Otsuka) or SSV in predetermined concentration to prepare test solution. When the compound was not dissolved in saline, it was dissolved in SSV. After measuring weight of each mouse, the dose for each mouse was calculated to achieve 5.0 to 40 mg concentration for weight1 kg.
Five mice were made into one group, and the test compound was administered intraperitoneally at predefined concentration. From 2 hours after infection, the compound was administered every 24 hours for straight 4 days. Subsequent to the 24 hours after last treatment, blood was collected from the tail of the mouse to prepare thin layer smear in order to count malaria protozoa infection in the treatment group and the control group under microscope. The mice showing maximum value and minimum value were excluded from the average calculation (average was calculated for three mice), to determine malaria protozoa infection rate (Parasitemia).
Using malaria protozoa infection rate thus calculated, recovery rate obtained from the test compound (suppression) was determined.
Recovery rate: suppression(%)=(b−a)/b×100 a: Protozoa infection rate in the treatment group b: Protozoa infection rate in the control group Mean survival days: MSD(day)=c−d c: Average days from the initial treatment (date of malaria infection) to the date of death for the treatment group (5 mice) d: Average days from the date of malaria infection to the date of death for the non-treatment (control) group (5 mice) […]
Tables 5 to 7 illustrate the recovery rate (%) and survival days (day) of malaria infected mice treated with intraperitoneal injection of the test compound and the control compound at predefined concentration. The meaning of symbols in the table is as follows.

[3] = tested on: Trypanosoma brucei rhodensiense (STIB 900 strain); assay: African trypanosoma protozoa proliferation inhibition screening test; format: cell-based; conditions: for Selective toxicity: EC50 rat L6 cells / EC50 African trypanosoma protozoa; for EC50: Trypanosoma brucei, STIB900, STIB 900 bloodstream form, 72 hours, Alamar blue, read-out: EC50 Trypanosoma brucei rhod.
Procedure: In this experiment, bloodstream form trypomastigote of Trypanosoma brucei rhodensiense (STIB 900 strain) was used. The medium used in the experiment was prepared as follows: to filter-sterilized MEM medium, 25 mM N-2-hydroxyethylpiperazine-2-ethane sulfonate (HEPES), 1 g/L glucose, 1% MEM nonessential amino acid, 0.2 mM 2-mercaptoethanol, 2 mM pyruvic calcium salt, 0.1 mM hypoxanthine, and 15% heat-treated horse serum were added. The protozoa was cultured under atmosphere of CO2 concentration 5% and temperature 37° C.
Either the compound of the invention or a positive control (melarsoprol) was dissolved into dimethylsulfoxide (DMSO) to prepare test solution having predefined concentration. To each well in a 96-well culture plate, medium containing 8×10^3 protozoa, and either test solution containing the test compound at predefined concentration or DMSO without compound was added. Then medium was added to achieve 100 μL. The test solution was duplicated.
The culture plate was cultured in an incubator for 72 hours, and the proliferation inhibition activity was examined. The activity was determined as follows. To each well, 10 μL Alamar blue water solution was added, then the plate was again cultured for 2 hours. Then the culture plate was mounted on a fluorescence microplate reader (Spectramax Gemeni XS; Molecular Devices Corporation, U.S.), and irradiated with 536 nm excitation wavelength to determine fluorescence at 588 nm. The trypanosoma infection rate of the sample containing the test composition and that of the control sample was calculated.
(§1) Using the protozoa infection rate thus obtained, the proliferation inhibition rate was calculated according to the following equation to determine 50% proliferation inhibition concentration (EC50).
(§2) Proliferation inhibition rate(%)={1−(b−a)/(c−a)}×100
(§3) a: initial infection rate b: infection rate of the test compound solution c: infection rate of the control

[4] = tested on: Plasmodium Falciparum k1 strain; assay: Chloroquine-resistant tropical malaria protozoa proliferation inhibition screening test; format: cell-based; conditions: for Selective toxicity: EC50 rat L6 cells / EC50 Chloroquine-resistant malaria protozoa; for EC50: Plasmodium falciparum, chloroquine-resistant K1 strain, 3H-hypoxanthine uptake, read-out: EC50 P. falciparum K1
Procedure: In this experiment, Plasmodium Falciparum k1 strain protozoa were used. The medium used in the experiment was filter-sterilized RPMI-1640 medium. To the medium human serum was added to achieve 5% concentration. The protozoa was cultured under condition of O2 concentration 3%, CO2 concentration 4%, N2 concentration 93%, and temperature 37° C.
The cultured malaria infected red blood cells were collected by centrifugation, diluted with non-infected red blood cells, to achieve initial infection rate 0.15%. The hematocrit was 2.5%.
To each well in a 96-well culture plate, 200 μL malaria infected culture was added, and either test solution containing test compound at predefined concentration or DMSO having no test compound was added. Each test solution was prepared in duplicate. After 48 hours culture under 37° C., hypoxanthine labeled with radioactive tritium (^3H) of 0.5 μCi was added to each well. After culturing under same condition for 24 hours, the product was collected on a glass fiber filter and washed. The intensity of radiation was measured by Beta plate liquid scintillation counter (Wallac Inc.), to determine malaria protozoa infection rate in test compound samples and control samples.
Using the malaria protozoa infection rate, the proliferation inhibition rate was calculated according to the following equation to determine 50% proliferation inhibition concentration (EC50).
as §2
(§4) a: initial infection rate b: infection rate of test compound solution c: infection rate of the control

[5] = tested on: Trypanosoma cruzi (Tulahuen C2C4 strain); assay: American trypanosoma protozoa proliferation inhibition screening test; format: cell-based; conditions: for Selective toxicity: EC50 rat L6 cells / EC50 American trypanosoma protozoa; for EC50: Trypanosoma cruzi, Tulahuen C2C4 strain in rat L6 cells, 96 hours, CPRG/Nonidet, read-out: EC50 Trypanosoma cruzi
Procedure: In this experiment, amastigote and trypomastigote of Trypanosoma cruzi (Tulahuen C2C4 strain) infected to rat L6 cells were used. The medium used in the experiment was prepared as follows: to RPMI 1640 medium containing L6 cells, L-glutamine (200 mM) and fetal bovine serum was added to achieve concentration of 1% and 10%, respectively. The culture was conducted under CO2 concentration 5% and temperature 37° C.
Either the compound of the invention or a positive control (benznidazole) was dissolved into DMSO to prepare test solution having predefined concentration. To each well in a 96-well culture plate, medium containing 5×10^3 protozoa was added and precultured for 48 hours. After replacing the medium, either the test solution containing compound of the invention in predefined concentration or DMSO without compound was added. The test solution was duplicated.
The plate was cultured in an incubator for 96 hours, and the proliferation inhibition activity was examined. The activity was determined as follows. To each well, 50 μL CPRG/Nonidet was added, then left for 2 to 6 hours. Then the culture plate was mounted on an absorption microplate reader to determine absorption at 540 nm. The trypanosoma infection rate of the sample containing the test compound and that of the control sample was calculated.
as §1, §2, §3

[6] = tested on: Leishmania donovani (MHOM/ET/67/L82 strain); assay: Leishmania protozoa proliferation inhibition screening test; format: cell-based
Procedure: In this experiment, Leishmania donovani (MHOM/ET/67/L82 strain) was used. The protozoa were successively cultured in Syrian Golden hamsters to obtain amastigote. The medium used in the experiment was SM medium having heat-treated fetal bovine serum 10% added, and pH prepared to 5.4. The culture was conducted under CO2 concentration 5% and temperature 37° C.
Either the compound of the invention or a positive control (miltefosine) was dissolved into DMSO to prepare test solution having predefined concentration. To each well of a 96-well culture plate, medium containing predetermined number of protozoa was added and the culture was pre-treated. The concentration of amastigote was determined by CASY cell analyze system (Scharfe GMBH Co., Germany). Subsequently, either test solution containing compound of the invention in predefined concentration or DMSO without compound was added. The test solution was duplicated.
The plate was cultured in an incubator for 72 hours, and the proliferation inhibition activity was examined. The activity was determined as follows. To each well, 10 μL Alamar blue aqueous solution was added, then cultured again for 2 hours. Then the culture plate was mounted on a fluorescence microplate reader (Spectramax Gemeni XS; Molecular Devices Corporation, U.S), and irradiated 536 nm excitation wavelength to determine […] at 588 nm. The leishmania infection rate of the sample containing the test compound and that of the control sample was calculated.
as §1, §2, §4

SMILES | EC50 at 72 h [1] | inhibition in vivo at 25 mg/kg/day ([2]; Plasmodium berghei, ip, 96 h, read-out: Recovery Rate (suppression)) | Survival days (mean survival days, treatment group minus control group) ([2]; dose 25 mg/kg/d intraperitoneally, 4 days) | Selective toxicity [3] | EC50 [3] | Selective toxicity [4] | EC50 [4] | Selective toxicity [5] | EC50 [5] | Selective toxicity ([6]; EC50 rat L6 cells / EC50 leishmania protozoa) | EC50 ([6]; Leishmania donovani, amastigote, 72 hours, Alamar blue, read-out: EC50 Leishmania donovani)
CCn1c(=O)/c(=C2\C=CC=CN2C)s/c1=C1\S/C(=N\c2sc3cc(Cl)ccc3[n+]2C)N(C(C)C)C1=O [Compound B-36] | 10.5 µg/mL | 95.5% | 1.7 days | 85 | 0.123 µg/mL | 1165 | 0.009 µg/mL |  |  |  | 
CCN1C(=O)/C(=c2\nc3c(s2)=CC=CN3C)S/C1=N\c1scc[n+]1C.[Cl-] [Compound A-20] | 24.3 µg/mL |  |  | 256 | 0.095 µg/mL | 2211 | 0.011 µg/mL | 32 | 0.763 µg/mL |  | 
CCN1C(=O)/C(=c2\nc3c(s2)=CC=CN3C)S/C1=N\c1sc2ccccc2[n+]1C.[Cl-] [Compound A-21] | 6.01 µg/mL |  |  | 207 | 0.029 µg/mL | 3005 | 0.002 µg/mL | 41 | 0.145 µg/mL | 18 | 0.343 µg/mL

Reference: US20090076067A1, “PHARMACEUTICAL COMPOSITION COMPRISING AZARHODACYANINE COMPOUND AS ACTIVE INGREDIENT” (priority 2005, published 2009)
